Results taken from article PMC9481151, “Discovery of new symmetrical and asymmetrical nitrile-containing 1,4-dihydropyridine derivatives as dual kinases and P-glycoprotein inhibitors: synthesis, in vitro assays, and in silico studies” (Journal of Enzyme Inhibition and Medicinal Chemistry, 2022).
Values joined by “and” are separate entries in the source; they are usually repeats but may differ in a detail not shown here. Equal values may be shown once.

What was measured:
UO-31 = test: NCI single dose (10 µM) SRB screen; assay type: cell-based, human; details: renal cancer, 48 h
HT29 = test: NCI single dose (10 µM) SRB screen; assay type: cell-based, human; details: colon cancer, 48 h
Escherichia coli = test: Agar well diffusion method; details: for % activity index, E. coli: relative to ciprofloxacin
MDA-MB-468 = test: NCI single dose (10 µM) SRB screen; assay type: cell-based, human; details: breast cancer, 48 h
HCT-116 = test: NCI single dose (10 µM) SRB screen; assay type: cell-based, human; details: colon cancer, 48 h
MDA-MB-231 = test: NCI single dose (10 µM) SRB screen; assay type: cell-based, human; details: breast cancer, 48 h
CAKI-1 = test: NCI single dose (10 µM) SRB screen; assay type: cell-based, human; details: renal cancer, 48 h
MDA-MB-435 = test: NCI single dose (10 µM) SRB screen; assay type: cell-based, human; details: melanoma, 48 h
PC-3 = test: NCI single dose (10 µM) SRB screen; assay type: cell-based, human; details: prostate cancer, 48 h
HOP-62 = test: NCI single dose (10 µM) SRB screen; assay type: cell-based, human; details: non-small cell lung cancer, 48 h
HOP-92 = test: NCI single dose (10 µM) SRB screen; assay type: cell-based, human; details: non-small cell lung cancer, 48 h
HCC-2998 = test: NCI single dose (10 µM) SRB screen; assay type: cell-based, human; details: colon cancer, 48 h
MALME-3M = test: NCI single dose (10 µM) SRB screen; assay type: cell-based, human; details: melanoma, 48 h
LOX IMVI = test: NCI single dose (10 µM) SRB screen; assay type: cell-based, human; details: melanoma, 48 h
NCI-H226 = test: NCI single dose (10 µM) SRB screen; assay type: cell-based, human; details: non-small cell lung cancer, 48 h
SF-295 = test: NCI single dose (10 µM) SRB screen; assay type: cell-based, human; details: CNS cancer, 48 h
ACHN = test: NCI single dose (10 µM) SRB screen; assay type: cell-based, human; details: renal cancer, 48 h
MCF7 = test: NCI single dose (10 µM) SRB screen; assay type: cell-based, human; details: breast cancer, 48 h
UACC-257 = test: NCI single dose (10 µM) SRB screen; assay type: cell-based, human; details: melanoma, 48 h
SK-OV-3 = test: NCI single dose (10 µM) SRB screen; assay type: cell-based, human; details: ovarian cancer, 48 h
RPMI-8226 = test: NCI single dose (10 µM) SRB screen; assay type: cell-based, human; details: leukaemia, 48 h
Candida albicans = test: Agar well diffusion method; details: for % activity index, C. albicans: relative to clotrimazole
CCRF-CEM = test: NCI single dose (10 µM) SRB screen; assay type: cell-based, human; details: leukaemia, 48 h
NCI 60 cancer cell lines = test: NCI single dose (10 µM) SRB screen, mean over panel; assay type: cell-based, human; details: mean over 60 cell lines, 48 h
HCT-15 = test: NCI single dose (10 µM) SRB screen; assay type: cell-based, human; details: colon cancer, 48 h
NCI/ADR-RES = test: NCI single dose (10 µM) SRB screen; assay type: cell-based, human; details: ovarian cancer, 48 h
UACC-62 = test: NCI single dose (10 µM) SRB screen; assay type: cell-based, human; details: melanoma, 48 h
HS578T = test: NCI single dose (10 µM) SRB screen; assay type: cell-based, human; details: breast cancer, 48 h
SNB-75 = test: NCI single dose (10 µM) SRB screen; assay type: cell-based, human; details: CNS cancer, 48 h
KM12 = test: NCI single dose (10 µM) SRB screen; assay type: cell-based, human; details: colon cancer, 48 h
TK-10 = test: NCI single dose (10 µM) SRB screen; assay type: cell-based, human; details: renal cancer, 48 h
COLO 205 = test: NCI single dose (10 µM) SRB screen; assay type: cell-based, human; details: colon cancer, 48 h
MOLT-4 = test: NCI single dose (10 µM) SRB screen; assay type: cell-based, human; details: leukaemia, 48 h
NCI-H23 = test: NCI single dose (10 µM) SRB screen; assay type: cell-based, human; details: non-small cell lung cancer, 48 h
DU-145 = test: NCI single dose (10 µM) SRB screen; assay type: cell-based, human; details: prostate cancer, 48 h
SK-MEL-5 = test: NCI single dose (10 µM) SRB screen; assay type: cell-based, human; details: melanoma, 48 h
EKVX = test: NCI single dose (10 µM) SRB screen; assay type: cell-based, human; details: non-small cell lung cancer, 48 h
SF-268 = test: NCI single dose (10 µM) SRB screen; assay type: cell-based, human; details: CNS cancer, 48 h
U251 = test: NCI single dose (10 µM) SRB screen; assay type: cell-based, human; details: CNS cancer, 48 h
SW-620 = test: NCI single dose (10 µM) SRB screen; assay type: cell-based, human; details: colon cancer, 48 h
Staphylococcus aureus = test: Agar well diffusion method; details: for % activity index, S. aureus: relative to ciprofloxacin
BT-549 = test: NCI single dose (10 µM) SRB screen; assay type: cell-based, human; details: breast cancer, 48 h
NCI-H522 = test: NCI single dose (10 µM) SRB screen; assay type: cell-based, human; details: non-small cell lung cancer, 48 h
HL-60(TB) = test: NCI single dose (10 µM) SRB screen; assay type: cell-based, human; details: leukaemia, 48 h
A549/ATCC = test: NCI single dose (10 µM) SRB screen; assay type: cell-based, human; details: non-small cell lung cancer, 48 h
SNB-19 = test: NCI single dose (10 µM) SRB screen; assay type: cell-based, human; details: CNS cancer, 48 h
SK-MEL-2 = test: NCI single dose (10 µM) SRB screen; assay type: cell-based, human; details: melanoma, 48 h
A498 = test: NCI single dose (10 µM) SRB screen; assay type: cell-based, human; details: renal cancer, 48 h
M14 = test: NCI single dose (10 µM) SRB screen; assay type: cell-based, human; details: melanoma, 48 h
NCI-H322M = test: NCI single dose (10 µM) SRB screen; assay type: cell-based; details: non-small cell lung cancer, 48 h
Bacillus subtilis = test: Agar well diffusion method; details: for % activity index, B. subtilis: relative to ciprofloxacin
SR = test: NCI single dose (10 µM) SRB screen; assay type: cell-based, human; details: leukaemia, 48 h

Compound: CCOC(=O)C1=C(C)NC(C)=C(C(=O)OCc2ccccc2)C1c1cccc(C#N)c1 (racemic) [Compound 2l, (±)-3- Benzyl 5-ethyl 4-(3-cyanophenyl)-2,6-dimethyl-1,4-dihydropyridine-3,5-dicarboxylate]
- GI% UO-31 (UO-31): 56%
- GI% HT29 (HT29): 88%
- % activity index, E. coli (Escherichia coli): – (Values below 25 are of limited value and not shown as they refer either to inactive or non-diffusing compounds)
- GI% MDA-MB-468 (MDA-MB-468): 84%
- GI% HCT-116 (HCT-116): 86%
- GI% MDA-MB-231 (MDA-MB-231): 47%
- GI% CAKI-1 (CAKI-1): 67%
- GI% MDA-MB-435 (MDA-MB-435): 110%
- GI% PC-3 (PC-3): 66%
- GI% HOP-62 (HOP-62): 54%
- GI% HOP-92 (HOP-92): 49%
- GI% HCC-2998 (HCC-2998): 29%
- GI% MALME-3M (MALME-3M): 62%
- GI% LOX IMVI (LOX IMVI): 64%
- GI% NCI-H226 (NCI-H226): 41%
- GI% SF-295 (SF-295): 84%
- GI% ACHN (ACHN): 52%
- GI% MCF7 (MCF7): 78%
- GI% UACC-257 (UACC-257): 44%
- GI% SK-OV-3 (SK-OV-3): 24%
- GI% RPMI-8226 (RPMI-8226): 67%
- % activity index, C. albicans (Candida albicans): – (Values below 25 are of limited value and not shown as they refer either to inactive or non-diffusing compounds)
- GI% CCRF-CEM (CCRF-CEM): 74%
- Mean GI% (NCI 60 cancer cell lines): 64%
- GI% HCT-15 (HCT-15): 77%
- GI% NCI/ADR-RES (NCI/ADR-RES): 77%
- GI% UACC-62 (UACC-62): 66%
- GI% HS578T (HS578T): 59%
- GI% SNB-75 (SNB-75): 104%
- GI% KM12 (KM12): 74%
- GI% TK-10 (TK-10): 16%
- GI% COLO 205 (COLO 205): 65%
- GI% MOLT-4 (MOLT-4): 68%
- GI% NCI-H23 (NCI-H23): 37%
- GI% DU-145 (DU-145): 42%
- GI% SK-MEL-5 (SK-MEL-5): 45%
- GI% EKVX (EKVX): 62%
- GI% SF-268 (SF-268): 42%
- GI% U251 (U251): 58%
- GI% SW-620 (SW-620): 70%
- % activity index, S. aureus (Staphylococcus aureus): – (Values below 25 are of limited value and not shown as they refer either to inactive or non-diffusing compounds)
- GI% BT-549 (BT-549): 68%
- GI% NCI-H522 (NCI-H522): 90%
- GI% HL-60(TB) (HL-60(TB)): 83%
- GI% A549/ATCC (A549/ATCC): 65%
- GI% SNB-19 (SNB-19): 58%
- GI% SK-MEL-2 (SK-MEL-2): 75%
- GI% A498 (A498): 104%
- GI% M14 (M14): 85%
- GI% NCI-H322M (NCI-H322M): 30%
- % activity index, B. subtilis (Bacillus subtilis): – (Values below 25 are of limited value and not shown as they refer either to inactive or non-diffusing compounds)
- GI% SR (SR): 78%

Compound: CCOC(=O)C1=C(C)NC(C)=C(C(=O)OC(C)(C)C)C1c1cccc(C#N)c1 (racemic) [Compound 2j, (±)-3-Tert-butyl 5-ethyl 4-(3-cyanophenyl)-2,6-dimethyl-1,4-dihydropyridine-3,5-dicarboxylate]
- GI% UO-31 (UO-31): – (Only GI% ≥ 10 are shown)
- GI% HT29 (HT29): – (Only GI% ≥ 10 are shown)
- zone of inhibition at 1000 µg/mL (Escherichia coli; Escherichia coli, 24 h, read-out: Diameter of inhibition zone, E. coli): 18 mm
- % activity index, E. coli (Escherichia coli): 69% and 69.2%
- GI% MDA-MB-468 (MDA-MB-468): 10%
- GI% HCT-116 (HCT-116): 13%
- GI% MDA-MB-231 (MDA-MB-231): – (Only GI% ≥ 10 are shown)
- GI% CAKI-1 (CAKI-1): 17%
- GI% MDA-MB-435 (MDA-MB-435): – (Only GI% ≥ 10 are shown)
- GI% PC-3 (PC-3): 18%
- GI% HOP-62 (HOP-62): – (Only GI% ≥ 10 are shown)
- GI% HOP-92 (HOP-92): – (Only GI% ≥ 10 are shown)
- GI% HCC-2998 (HCC-2998): – (Only GI% ≥ 10 are shown)
- GI% MALME-3M (MALME-3M): – (Only GI% ≥ 10 are shown)
- GI% LOX IMVI (LOX IMVI): – (Only GI% ≥ 10 are shown)
- GI% NCI-H226 (NCI-H226): – (Only GI% ≥ 10 are shown)
- GI% SF-295 (SF-295): – (Only GI% ≥ 10 are shown)
- GI% ACHN (ACHN): – (Only GI% ≥ 10 are shown)
- GI% MCF7 (MCF7): – (Only GI% ≥ 10 are shown)
- GI% UACC-257 (UACC-257): – (Only GI% ≥ 10 are shown)
- GI% SK-OV-3 (SK-OV-3): – (Only GI% ≥ 10 are shown)
- GI% RPMI-8226 (RPMI-8226): 12%
- zone of inhibition at 1000 µg/mL (Candida albicans; Candida albicans, 24 h, read-out: Diameter of inhibition zone, C. albicans): 19 mm
- % activity index, C. albicans (Candida albicans): 70% and 70.4%
- GI% CCRF-CEM (CCRF-CEM): – (Only GI% ≥ 10 are shown)
- Mean GI% (NCI 60 cancer cell lines): 4%
- GI% HCT-15 (HCT-15): – (Only GI% ≥ 10 are shown)
- GI% NCI/ADR-RES (NCI/ADR-RES): 10%
- GI% UACC-62 (UACC-62): 10%
- GI% HS578T (HS578T): – (Only GI% ≥ 10 are shown)
- GI% SNB-75 (SNB-75): 22%
- GI% KM12 (KM12): – (Only GI% ≥ 10 are shown)
- GI% TK-10 (TK-10): – (Only GI% ≥ 10 are shown)
- GI% COLO 205 (COLO 205): – (Only GI% ≥ 10 are shown)
- GI% MOLT-4 (MOLT-4): 17%
- GI% NCI-H23 (NCI-H23): – (Only GI% ≥ 10 are shown)
- GI% DU-145 (DU-145): – (Only GI% ≥ 10 are shown)
- GI% SK-MEL-5 (SK-MEL-5): – (Only GI% ≥ 10 are shown)
- GI% EKVX (EKVX): 10%
- GI% SF-268 (SF-268): – (Only GI% ≥ 10 are shown)
- GI% U251 (U251): – (Only GI% ≥ 10 are shown)
- GI% SW-620 (SW-620): – (Only GI% ≥ 10 are shown)
- zone of inhibition at 1000 µg/mL (Staphylococcus aureus; Staphylococcus aureus, 24 h, read-out: Diameter of inhibition zone, S. aureus): 18 mm
- % activity index, S. aureus (Staphylococcus aureus): 75%
- GI% BT-549 (BT-549): – (Only GI% ≥ 10 are shown)
- GI% NCI-H522 (NCI-H522): 13%
- GI% HL-60(TB) (HL-60(TB)): 19%
- GI% A549/ATCC (A549/ATCC): 11%
- GI% SNB-19 (SNB-19): – (Only GI% ≥ 10 are shown)
- GI% SK-MEL-2 (SK-MEL-2): – (Only GI% ≥ 10 are shown)
- GI% A498 (A498): – (Only GI% ≥ 10 are shown)
- GI% M14 (M14): – (Only GI% ≥ 10 are shown)
- GI% NCI-H322M (NCI-H322M): – (Only GI% ≥ 10 are shown)
- zone of inhibition at 1000 µg/mL (Bacillus subtilis; Bacillus subtilis, 24 h, read-out: Diameter of inhibition zone, B. subtilis): 15 mm
- % activity index, B. subtilis (Bacillus subtilis): 65.2%
- GI% SR (SR): 22%
